{
  "source": "patent US20090028816A1",
  "about": "“Treatment of depression, psychosis, and anxiety” (priority 2007, published 2009)",
  "assay": "Range-finding tolerability and efficacy studies in neurological models",
  "type": "in vivo",
  "details": "intraperitoneally at dose levels up to 15 mg/kg twice a day (bid) for multiple days",
  "description": "Ibudilast is obtained as a pure powder from Sigma (St. Louis, Mo.) or Haorui Pharma (Edison, N.J.) and prepared daily as a solution for intraperitoneal or oral administration. Previous range-finding tolerability and efficacy studies in neurological models indicate that ibudilast is well-tolerated intraperitoneally at dose levels up to 15 mg/kg twice a day (bid) for multiple days. An appropriate amount of ibudilast is dissolved in 100% […] (PEG) 400 (Sigma) and then diluted down to a final concentration of 35% PEG400 in sterile saline (0.9% for injection). Drug stability and concentration are validated by HPLC/MS/MS.",
  "data": [
    {"smiles": "CC(C)C(=O)c1c(C(C)C)nn2ccccc12", "note": "[Ibudilast, 3-isobutyryl-2-isopropylpyrazolo[1,5-a]pyridine]", "values": [
      {"measurement": "tolerability, intraperitoneal", "result": "well-tolerated"}
    ]}
  ]
}
